Source: US10670605B2, “Cysteine reactive probes and uses thereof” (The Scripps Research Institute, priority 2015, dated 2020)

Columns and labels:
Assay in all cases: Competitive isoTOP-ABPP in situ (fragment-treated cells)
Type in all cases: cell-based
[1] = target: T1, cysteines in MDA-MB-231 and Ramos cells (Homo sapiens, UniProt O15294)
T1 sequence (O15294 1-1046): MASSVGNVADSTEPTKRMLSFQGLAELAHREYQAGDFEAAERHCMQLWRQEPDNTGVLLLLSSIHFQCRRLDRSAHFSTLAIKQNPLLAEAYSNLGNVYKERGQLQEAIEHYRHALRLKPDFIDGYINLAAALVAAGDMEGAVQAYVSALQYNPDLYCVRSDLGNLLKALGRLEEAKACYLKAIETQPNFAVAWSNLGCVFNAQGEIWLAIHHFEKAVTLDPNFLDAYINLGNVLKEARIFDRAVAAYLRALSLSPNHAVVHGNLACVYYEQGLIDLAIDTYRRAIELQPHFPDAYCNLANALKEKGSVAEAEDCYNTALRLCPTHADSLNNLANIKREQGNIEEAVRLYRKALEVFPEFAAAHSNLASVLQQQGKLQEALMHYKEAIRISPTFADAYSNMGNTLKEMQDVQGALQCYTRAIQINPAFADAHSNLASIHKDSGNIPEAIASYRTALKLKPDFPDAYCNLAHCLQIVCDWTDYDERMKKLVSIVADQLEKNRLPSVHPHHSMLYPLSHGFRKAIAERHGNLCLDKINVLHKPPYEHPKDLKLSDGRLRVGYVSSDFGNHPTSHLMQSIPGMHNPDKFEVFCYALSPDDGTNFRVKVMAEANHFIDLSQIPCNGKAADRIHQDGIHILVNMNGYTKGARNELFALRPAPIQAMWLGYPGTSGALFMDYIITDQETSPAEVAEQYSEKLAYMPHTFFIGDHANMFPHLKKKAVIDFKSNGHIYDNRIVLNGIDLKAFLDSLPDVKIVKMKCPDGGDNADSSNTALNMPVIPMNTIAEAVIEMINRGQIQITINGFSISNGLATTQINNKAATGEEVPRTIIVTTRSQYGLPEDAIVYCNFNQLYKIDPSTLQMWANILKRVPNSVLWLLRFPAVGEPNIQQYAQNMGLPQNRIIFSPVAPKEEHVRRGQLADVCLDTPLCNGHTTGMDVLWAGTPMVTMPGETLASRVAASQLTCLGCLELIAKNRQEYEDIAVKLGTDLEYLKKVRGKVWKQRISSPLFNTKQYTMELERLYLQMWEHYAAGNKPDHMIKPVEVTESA

[2] = target: T2, cysteines in MDA-MB-231 and Ramos cells (Homo sapiens, UniProt P31943)
T2 sequence (P31943 1-449): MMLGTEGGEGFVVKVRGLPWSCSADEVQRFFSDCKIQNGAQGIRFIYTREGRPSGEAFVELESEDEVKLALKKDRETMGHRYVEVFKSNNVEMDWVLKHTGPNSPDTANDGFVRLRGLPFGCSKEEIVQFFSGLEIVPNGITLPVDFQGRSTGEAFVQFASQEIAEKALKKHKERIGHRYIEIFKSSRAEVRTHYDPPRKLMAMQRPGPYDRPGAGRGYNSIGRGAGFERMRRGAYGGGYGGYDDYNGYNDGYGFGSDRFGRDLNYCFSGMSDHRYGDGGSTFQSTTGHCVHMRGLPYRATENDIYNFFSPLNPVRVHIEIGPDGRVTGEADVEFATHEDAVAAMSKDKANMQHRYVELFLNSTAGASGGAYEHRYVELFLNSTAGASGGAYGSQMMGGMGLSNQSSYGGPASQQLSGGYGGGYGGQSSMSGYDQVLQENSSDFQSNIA

[3] = target: cysteines in MDA-MB-231 and Ramos cells (Homo sapiens, UniProt P61978)
[4] = target: T3, cysteines in MDA-MB-231 and Ramos cells (Homo sapiens, UniProt Q09161)
T3 sequence (Q09161 1-790): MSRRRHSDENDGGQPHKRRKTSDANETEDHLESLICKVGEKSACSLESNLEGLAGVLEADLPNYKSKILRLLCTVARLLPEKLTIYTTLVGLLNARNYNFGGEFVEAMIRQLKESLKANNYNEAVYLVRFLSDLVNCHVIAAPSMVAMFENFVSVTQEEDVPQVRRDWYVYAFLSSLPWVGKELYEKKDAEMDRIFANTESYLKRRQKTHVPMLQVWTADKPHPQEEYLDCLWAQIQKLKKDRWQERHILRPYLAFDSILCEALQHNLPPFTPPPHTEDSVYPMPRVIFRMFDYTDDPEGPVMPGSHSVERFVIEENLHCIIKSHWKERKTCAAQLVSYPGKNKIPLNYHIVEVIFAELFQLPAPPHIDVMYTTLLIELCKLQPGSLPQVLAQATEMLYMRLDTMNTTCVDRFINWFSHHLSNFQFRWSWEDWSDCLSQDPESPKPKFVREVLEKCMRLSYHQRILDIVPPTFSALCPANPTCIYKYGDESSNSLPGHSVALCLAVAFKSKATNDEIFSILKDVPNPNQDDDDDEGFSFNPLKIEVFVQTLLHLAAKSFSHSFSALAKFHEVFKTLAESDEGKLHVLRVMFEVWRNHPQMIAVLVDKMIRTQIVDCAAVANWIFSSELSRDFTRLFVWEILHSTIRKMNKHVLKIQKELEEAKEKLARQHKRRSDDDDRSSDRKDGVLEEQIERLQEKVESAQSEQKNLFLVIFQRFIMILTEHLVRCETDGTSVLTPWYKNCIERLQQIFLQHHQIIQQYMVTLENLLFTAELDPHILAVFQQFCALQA

[5] = target: cysteines in MDA-MB-231 and Ramos cells (Homo sapiens, UniProt Q9NYL2)
[6] = target: T4, cysteines in MDA-MB-231 and Ramos cells (Homo sapiens, UniProt Q9Y3A3)
T4 sequence (Q9Y3A3 1-225): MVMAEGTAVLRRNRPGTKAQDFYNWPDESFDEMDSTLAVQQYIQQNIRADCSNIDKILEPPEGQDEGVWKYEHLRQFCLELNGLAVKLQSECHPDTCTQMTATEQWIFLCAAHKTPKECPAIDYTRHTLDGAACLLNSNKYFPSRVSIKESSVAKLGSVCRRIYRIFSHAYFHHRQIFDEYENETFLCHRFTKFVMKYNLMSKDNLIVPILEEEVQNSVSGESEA

Chain of cysteines in MDA-MB-231 and Ramos cells (Homo sapiens, UniProt Q9NYL2) (Q9NYL2 whole entry): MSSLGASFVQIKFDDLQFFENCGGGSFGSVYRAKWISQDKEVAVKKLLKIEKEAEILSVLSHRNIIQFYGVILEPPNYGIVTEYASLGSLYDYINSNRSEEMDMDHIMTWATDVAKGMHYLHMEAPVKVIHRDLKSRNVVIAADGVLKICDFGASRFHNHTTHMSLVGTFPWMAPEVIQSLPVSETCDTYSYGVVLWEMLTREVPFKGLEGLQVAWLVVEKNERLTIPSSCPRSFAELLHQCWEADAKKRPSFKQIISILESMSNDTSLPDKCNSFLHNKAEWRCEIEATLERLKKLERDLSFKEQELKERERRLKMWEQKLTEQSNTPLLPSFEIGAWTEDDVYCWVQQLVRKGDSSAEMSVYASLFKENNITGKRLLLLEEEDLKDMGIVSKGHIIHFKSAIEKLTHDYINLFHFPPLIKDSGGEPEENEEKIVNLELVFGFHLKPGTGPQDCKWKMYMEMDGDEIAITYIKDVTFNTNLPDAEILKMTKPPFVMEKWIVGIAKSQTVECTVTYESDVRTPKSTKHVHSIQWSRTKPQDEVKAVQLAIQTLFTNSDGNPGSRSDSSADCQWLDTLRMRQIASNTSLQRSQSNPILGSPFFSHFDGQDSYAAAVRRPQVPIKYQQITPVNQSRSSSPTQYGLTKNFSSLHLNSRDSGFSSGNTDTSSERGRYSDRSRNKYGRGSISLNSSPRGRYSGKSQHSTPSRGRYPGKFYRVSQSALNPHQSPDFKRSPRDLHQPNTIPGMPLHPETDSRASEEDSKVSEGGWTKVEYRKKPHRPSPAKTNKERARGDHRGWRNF

| isoTOP-ABPP ratio O15294_C758 ([1]; 200 μM, insitu, 231) | isoTOP-ABPP ratio P31943_C267 ([2]; 200 μM, insitu, 231) | isoTOP-ABPP ratio P61978_C132 ([3]; 200 μM, insitu, 231) | isoTOP-ABPP ratio Q09161_C44 ([4]; 200 μM, insitu, 231) | isoTOP-ABPP ratio Q9NYL2_C22 ([5]; 200 μM, insitu, 231) | isoTOP-ABPP ratio Q9Y3A3_C134 ([6]; 200 μM, insitu, 231) | SMILES | also measured |
| --- | --- | --- | --- | --- | --- | --- | --- |
|  |  |  |  |  |  | COc1ccc2c(c1)CCCN2C(=O)CCl [compound 2] | isoTOP-ABPP reactivity 015294_C758 OGT ([1]; 200 μM, insitu, 231): 2.6; isoTOP-ABPP reactivity P31943_C267 HNRNPH1 ([2]; 200 μM, insitu, 231): 3.8; isoTOP-ABPP reactivity P61978_C132 HNRNPK ([3]; 200 μM, insitu, 231): 5.0; isoTOP-ABPP reactivity Q09161_C44 NCBP1 ([4]; 200 μM, insitu, 231): 2.1; isoTOP-ABPP reactivity Q9NYL2_C22 MUTK Mitogen-activated protein kinase MLTK ([5]; 200 μM, insitu, 231): 5.5 |
|  |  |  |  |  |  | COc1ccc(C2CC(c3cccs3)=NN2C(=O)CCl)cc1 (centres unmarked) [compound 4] | isoTOP-ABPP reactivity 015294_C758 OGT ([1]; 100 μM in situ 231): 6.4; isoTOP-ABPP reactivity O15294_C620 OGT ([1]; 100 μM in situ 231): 20.0; isoTOP-ABPP reactivity P31943_C267 HNRNPH1 ([2]; 100 μM in situ 231): 6.0; isoTOP-ABPP reactivity P61978_C132 HNRNPK ([3]; 100 μM in situ 231): 3.8; isoTOP-ABPP reactivity Q09161_C44 NCBP1 ([4]; 100 μM in situ 231): 1.8; isoTOP-ABPP reactivity Q9NYL2_C22 MUTK Mitogen-activated protein kinase MLTK ([5]; 100 μM in situ 231): 20.0; isoTOP-ABPP reactivity Q9Y3A3_C134 MOB4 ([6]; 100 μM in situ 231): 1.2 |
|  |  |  |  |  |  | COc1cc2c(cc1OC)CN(C(=O)CCl)CC2 [compound 8] | isoTOP-ABPP reactivity 015294_C758 OGT ([1]; 200 μM, insitu, 231): 2.4; isoTOP-ABPP reactivity P31943_C267 HNRNPH1 ([2]; 200 μM, insitu, 231): 5.3; isoTOP-ABPP reactivity P61978_C132 HNRNPK ([3]; 200 μM, insitu, 231): 4.2; isoTOP-ABPP reactivity Q09161_C44 NCBP1 ([4]; 200 μM, insitu, 231): 2.0; isoTOP-ABPP reactivity Q9NYL2_C22 MUTK Mitogen-activated protein kinase MLTK ([5]; 200 μM, insitu, 231): 1.4; isoTOP-ABPP reactivity Q9Y3A3_C134 MOB4 ([6]; 200 μM, insitu, 231): 1.6 |
|  |  |  |  |  |  | O=C(CCl)N1CCC(Cc2ccccc2)CC1 [compound 9] | isoTOP-ABPP reactivity 015294_C758 OGT ([1]; 200 μM, insitu, 231): 2.1; isoTOP-ABPP reactivity P31943_C267 HNRNPH1 ([2]; 200 μM, insitu, 231): 2.1; isoTOP-ABPP reactivity P61978_C132 HNRNPK ([3]; 200 μM, insitu, 231): 1.4; isoTOP-ABPP reactivity Q9NYL2_C22 MUTK Mitogen-activated protein kinase MLTK ([5]; 200 μM, insitu, 231): 10.3; isoTOP-ABPP reactivity Q9Y3A3_C134 MOB4 ([6]; 200 μM, insitu, 231): 20.0 |
| 2.3 | 4.8 | 5.6 | 12.4 | 1.2 | 1.9 | O=C(CCl)N1CCN(S(=O)(=O)c2ccccc2F)CC1 [compound 10] | isoTOP-ABPP ratio, cysteine O15294_C620 ([1]; 200 μM, insitu, ramos): 12 .0; isoTOP-ABPP ratio P31943_C267 ([2]; 200 μM, insitu, ramos): 2.5; isoTOP-ABPP ratio P61978_C132 ([3]; 200 μM, insitu, ramos): 1.6 |
|  |  |  |  |  |  | Cn1cc(S(=O)(=O)N2CCOCC2)cc1C(=O)NC(=O)CCl [compound 11] | isoTOP-ABPP ratio O15294_C758 ([1]; 100 μM in situ 231): 1.0; isoTOP-ABPP ratio P31943_C267 ([2]; 100 μM in situ 231): 0.9; isoTOP-ABPP ratio P61978_C132 ([3]; 100 μM in situ 231): 0.9; isoTOP-ABPP ratio Q09161_C44 ([4]; 100 μM in situ 231): 1.1; isoTOP-ABPP ratio Q9NYL2_C22 ([5]; 100 μM in situ 231): 0.7; isoTOP-ABPP ratio Q9Y3A3_C134 ([6]; 100 μM in situ 231): 1.8 |
| 20.0 | 5.0 | 7.5 | 4.7 | 0.7 | 1.4 | O=C(CCl)NC(=O)NC12CC3CC(CC(C3)C1)C2 [compound 12] |  |
| 1.0 | 1.1 | 1.1 | 1.0 | 1.3 |  | O=C(CCl)NCCc1c[nH]c2ccccc12 [compound 13] | isoTOP-ABPP ratio P31943_C267 ([2]; 200 μM, insitu, ramos): 1.2; isoTOP-ABPP ratio P61978_C132 ([3]; 200 μM, insitu, ramos): 1.1; isoTOP-ABPP ratio Q9Y3A3_C134 ([6]; 200 μM, insitu, ramos): 1.9 |
| 1.1 | 1.5 | 1.4 | 1.3 |  |  | O=C(CCl)NC12CC3CC(CC(C3)C1)C2 [compound 21] |  |
| 1.0 | 1.1 | 0.9 | 0.8 | 0.7 |  | CC(C)CCOCCNC(=O)CCl [compound 27] |  |
| 1.0 |  | 1.0 |  |  |  | COc1ccccc1OCCNC(=O)CCl [compound 28] |  |
|  |  |  |  |  |  | O=C(CCl)N1CCN(CC(=O)N2CCOCC2)CC1 [compound 29] | isoTOP-ABPP ratio O15294_C620 ([1]; 200 μM, insitu, ramos): 2.6; isoTOP-ABPP ratio P31943_C267 ([2]; 200 μM, insitu, ramos): 1.4; isoTOP-ABPP ratio P61978_C132 ([3]; 200 μM, insitu, ramos): 1.2; isoTOP-ABPP ratio Q09161_C44 ([4]; 200 μM, insitu, ramos): 1.1; isoTOP-ABPP ratio Q9NYL2_C22 ([5]; 200 μM, insitu, ramos): 1.2; isoTOP-ABPP ratio Q9Y3A3_C134 ([6]; 200 μM, insitu, ramos): 1.2 |
|  | 0.7 | 0.9 | 0.6 |  | 1.0 | C=CC(=O)N(Cc1cccnc1)c1cc(C(F)(F)F)cc(C(F)(F)F)c1 [compound 31] | isoTOP-ABPP ratio O15294_C620 ([1]; 200 μM, insitu, 231): 1.1; isoTOP-ABPP ratio P31943_C267 ([2]; 200 μM, insitu, ramos): 0.9; isoTOP-ABPP ratio P61978_C132 ([3]; 200 μM, insitu, ramos): 1.1; isoTOP-ABPP ratio Q9Y3A3_C134 ([6]; 200 μM, insitu, ramos): 1.8 |
|  | 1.2 | 1.0 | 1.2 |  | 1.0 | C=CC(=O)Nc1cc(F)c(N2CCN(C(=O)OC(C)(C)C)CC2)c(F)c1 [compound 38] |  |
| 0.9 | 1.0 | 0.9 | 0.8 | 0.6 | 0.9 | Cc1ccc(C=C(C#N)C(=O)NCCN2CCOCC2)cc1 [compound 41] | isoTOP-ABPP ratio O15294_C620 ([1]; 200 μM, insitu, 231): 1.0 |
| 2.9 | 3.6 | 9.3 | 2.5 | 2.3 | 2.3 | CC1CCc2ccccc2N1C(=O)CCl (centres unmarked) [compound 45] |  |
| 1.1 | 1.3 | 1.2 | 1.2 |  |  | O=C(CCl)Nc1cccc2ncccc12 [compound 51] |  |
